Test results taken from patent US5232922A, “Imidazole compounds, processes for their preparation, pharmaceuticals based on these compounds and some intermediates” (priority 1990, dated 1993).
Structures can show the parent of a compound that is named as a salt. Where two headings read alike, the source gives them in different places.

Columns and labels:
[1] = system: skeletal muscle of the rat (chronic ischemic); experiment: Effect on the contractility of the skeletal muscle after chronic ischemia (tiring index); format: in vivo, rat (male Wistar); conditions: for TI of ischemic treated muscle: tiring index = maximum contractility / residual force after 5 min stimulation; for change in vivo at 6 mg/kg: Rattus norvegicus, po, 168 h, read-out: Percentage change (TI of ischemic treated muscle vs TI of normal non-treated muscle)
Source text: 1) Effect on the Contractility of the Skeletal Muscle After Chronic Ischemia
In recent years, a marked change has taken place in ideas about the pathophysiology of chronic peripheral arterial occlusive disease as scientific interest has to an increasing extent shifted from the macrocirculation to the microcirculation. Disturbances in the microcirculation therefore manifest themselves in an undersupply of substrates with tissue ischemia resulting therefrom which, in turn, leads to an impairment in the function of the extremity concerned. The logical consequence of this is that the target organ skeletal muscle comes more and more into the forefront. […] The clinical activity is in fact also consistently determined in humans with the aid of the painless walking distance on the moving walkway.
Male Wistar rats having a body weight of 380 to 410 g were used as experimental animals. Under hexobarbital anesthesia (®Evipan--sodium, 200 mg/kg BW (=body weight) i.p.), a unilateral ligature of the right femoral artery was applied to the animals in the groin. After sprinkling penicillin sulfonamide powder for antibiotic wound care, the small operation wound was closed and the animals were continuously observed until they were completely awake. One week later, the administration of substance began by oral administration using a stomach tube (6 mg/kg BW, carboxymethylcellulose-sodium suspension) and was continued for 7 days (single administration per day, about 7h30 to 8h30). The contractility was measured 24 h after the last administration of substance in order to exclude acute effects, to be precise by the following experimental protocol:
Superfusion with physiological saline solution (37° C.) was used to avoid drying out and cooling. The mean arterial blood pressure was recorded continuously via Statham (=blood pressure measuring device) by means of a cannulated caroted artery to control the physiological status of the animals during the experiment. All animals breathed spontaneously by means of an inserted tracheal tube.
After these preparations, the muscle was made to contract (Stimulator I, Hugo Sachs, Federal Republic of Germany) by direct electrical stimulation (2.5 mA, 2 Hz). The absolute contractility in grams at various times of stimulation was used as the measured parameter. […] If the maximum contractility at the start of stimulation is now divided by the residual force remaining after 5 minutes' tiring stimulation, a "tiring index TI" for the muscle concerned can be calculated; the ability to tire here is larger the larger TI is numerically.
4 to 6 individual experiments were carried out for each test preparation.

[2] = system: laser-induced thrombosis in mesenterial arterioles; experiment: Inhibition of laser-induced thrombosis in mesenterial arterioles of the rat; format: in vivo, rat (female Sprague-Dawley); conditions: for inhibition in vivo at 10 mg/kg / inhibition in vivo at 20 mg/kg: Rattus norvegicus, po, read-out: Percentage change vs control (inhibition of laser-induced thrombosis); for inhibition in vivo at 10 mg/kg: 10 mg/kg p.o.
[3] = Acute toxicity (LD50 range); conditions: mouse, in vivo, single administration, NMRI mice, 7 days
Description: The determination of the LD50 ranges was carried out in standard fashion by means of the mortality occurring in the course of 7 days in NMRI mice after single intravenous (i.v.) or intraperitoneal (i.p.) administration (NMRI=NIH Medical Research Institute).

[4] = 6 mg/kg p.o. over 7 days, n = 4-6
[5] = 6 mg/kg p.o. over 7 days, n = 4-6, smaller value = more effective

Compound	TI of ischemic treated muscle [1, 4]	change in vivo at 6 mg/kg [1, 5]	also measured
Cn1cnc(S(=O)(=O)NCCCCCCNS(=O)(=O)c2cn(C)cn2)c1 [Example 54, 1,6-Bis(1-methyl-4-imidazolesulfonamido)hexane]	2.55	37.8%	inhibition in vivo at 10 mg/kg [2]: 17%; LD50 at 168 h ([3]; ip): > 1200 mg/kg
Cl.Cn1cnc(S(=O)(=O)NCCCN2CCOCC2)c1Cl [Example 32, N-(3-Morpholinopropyl)-5-chloro-1-methyl-4-imidazolesulfonamide hydrochloride]	2.51	6.4%	inhibition in vivo at 10 mg/kg [2]: 21%; LD50 at 168 h ([3]; iv): > 200 mg/kg
Cn1cnc(S(=O)(=O)NCCc2ccc(OCC(=O)O)cc2)c1 [Example 51, 4-[2-(1-Methyl-4-imidazolesulfonyl)aminoethyl]phenoxyacetic acid]	2.92	23.7%	–
Cl.Cn1cnc(S(=O)(=O)NCCCN2CCN(Cc3ccccc3)CC2)c1 [Example 26, N-[3-(4-benzyl-1-piperazinyl)-propyl]-1-methyl-4-imidazolesulfonamide hydrochloride]	2.49	25.7%	inhibition in vivo at 10 mg/kg [2]: 24%
Cn1cnc(S(=O)(=O)NCCCCCCNS(=O)(=O)c2ncn(C)c2Cl)c1Cl [Example 47, 1,6-bis(5-chloro-1-methyl-4-imidazolesulfonamido)hexane]	2.46	6%	–
CCOC(=O)COc1ccc(N2CCN(S(=O)(=O)c3ncn(C)c3Cl)CC2)cc1 [Example 58, Ethyl 4-[4-(5-chloro-1-methyl-4-imidazolesulfonyl)piperazinyl]phenoxyacetate]	2.07	-1.9%	–
Cl.Cn1cnc(S(=O)(=O)NCCN2CCCC2)c1 [Example 20, N-(2-pyrrolidinoethyl)-1-methyl-4-imidazolesulfonamide hydrochloride]	2.56	23.1%	–
Cn1cnc(S(=O)(=O)NCCCCN2CCC3(CC2)OCCO3)c1 [Example 19, hydrochloride]	2.20	–	change in vivo at 6 mg/kg [1]: 11.1%
Cn1cnc(S(=O)(=O)N2CCN(c3ccc(O)cc3)CC2)c1Cl [Example 40]	3.18	34.7%	inhibition in vivo at 10 mg/kg [2]: 17%; LD50 at 168 h ([3]; ip): > 1200 mg/kg
CC(CNS(=O)(=O)c1cn(C)cn1)CN1CCOCC1.Cl (stereo not drawn) [Example 12, N-(3-morpholino-2-methyl-1-propyl)-1-methyl-4-imidazolesulfonamide hydrochloride]	–	–	inhibition in vivo at 20 mg/kg ([2]; 20 mg/kg p.o.): 24%; LD50 at 168 h ([3]; iv): > 100 mg/kg
COCCN(CCCNS(=O)(=O)c1cn(C)cn1)CCOC [Example 23]	2.18	23.1%	–
CN1CCCC1CCNS(=O)(=O)c1cn(C)cn1.Cl (stereo not drawn) [Example 21, N-[2-(1-methyl-2-pyrrolidinyl)-ethyl]-1-methyl-4-imidazolesulfonamide hydrochloride]	2.34	19.4%	inhibition in vivo at 20 mg/kg ([2]; 20 mg/kg p.o.): 24%
Cn1cnc(S(=O)(=O)NCCc2ccc(OCC(=O)O)cc2)c1Cl [Example 52, 4-[2-(5-Chloro-1-methyl-4-imidazolesulfonyl)aminoethyl]phenoxyacetic acid]	2.16	17.4%	–
CC1CCCCN1CCCNS(=O)(=O)c1cn(C)cn1.Cl (stereo not drawn) [Example 17, N-[3-(2-methylpiperidino)-propyl]-1-methyl-4-imidazolesulfonamide hydrochloride]	2.04	-14.3%	–
Cl.Cn1cnc(S(=O)(=O)NCCCCCN2CCOCC2)c1 [Example 11, N-(5-morpholinopentyl)-1-methyl-4-imidazolesulfonamide hydrochloride]	2.52	22.9%	–
Cn1cnc(S(=O)(=O)NCCC[N+]2(C)CCOCC2)c1 [Example 56, 4-Methyl-4-[3-(1-methyl-4-imidazolesulfamoyl)-1-propyl]morpholinium iodide]	–	–	inhibition in vivo at 10 mg/kg [2]: 24%; LD50 at 168 h ([3]; iv): > 100 mg/kg
Cl.Cn1cnc(S(=O)(=O)NCCCN2CCSCC2)c1 [Example 13, N-(3-thiomorpholinopropyl)-1-methyl-4-imidazolesulfonamide hydrochloride]	2.95	-10.1%	inhibition in vivo at 20 mg/kg ([2]; 20 mg/kg p.o.): 14%
CCn1cnc(S(=O)(=O)NCCCN2CCOCC2)c1 [Example 37, N-(3-Morpholinopropyl)-1-ethyl-4-imidazolesulfonamide hydrogenfumarate]	2.09	-7.9%	–
CCCCN(CCCN1CCOCC1)S(=O)(=O)c1cn(C)cn1.Cl [Example 15, N-butyl-N-(3-morpholino-1-propyl)-1-methyl-4-imidazolesulfonamide hydrochloride]	1.96	10.9%	–
CNCCCNS(=O)(=O)c1cn(C)cn1.Cl [Example 62, N-(3-Methylamino-1-propyl)-1-methyl-4-imidazolesulfonamide hydrochloride]	2.5	27.8%	–
Cn1cnc(S(=O)(=O)O)c1 [Example 3, 1-Methyl-4-imidazolesulfonic acid]	2.26	7.1%	inhibition in vivo at 20 mg/kg ([2]; 20 mg/kg p.o.): 23%
Cn1cnc(S(=O)(=O)Oc2ccc(N3CCN(S(=O)(=O)c4ncn(C)c4Cl)CC3)cc2)c1Cl [Example 41, 1-(1-Methyl-5-chloro-4-imidazolesulfonyl)4-[4-(1-methyl-5-chloro-4-imidazolesulfonyloxy)phenyl]piperazine]	2.18	18.5%	–
CN(CCCNS(=O)(=O)c1cn(C)cn1)Cc1ccccc1 [Example 28, N-[3-(N-Benzyl-N-methylamino)-1-propyl]-1-methyl-4-imidazolesulfonamide hydrogenfumarate]	2.27	14.6%	–
Cc1nc(S(=O)(=O)NCCCN2CCOCC2)cn1C.Cl [Example 33, N-(3-Morpholinopropyl)-1,2-dimethyl-4-imidazolesulfonamide hydrochloride]	2.30	12.2%	inhibition in vivo at 10 mg/kg [2]: 18%
Cn1cnc(S(=O)(=O)N2CCSCC2)c1 [Example 42, 4-(1-Methyl-4-imidazolesulfonyl)tetrahydro-4H-1,4-thiazine]	2.84	24.6%	–
Cn1cnc(S(=O)(=O)NCCc2ccc(O)cc2)c1 [Example 45, N-(4-hydroxyphenethyl)-1-methyl-4-imidazolesulfonamide]	2.14	16.3%	–
Cn1cnc(S(=O)(=O)NC(CN2CCOCC2)CN2CCOCC2)c1 [Example 38, N-(1,3-Dimorpholino-2-propyl)-1-methyl-4-imidazolesulfonamide]	2.18	10.1%	inhibition in vivo at 10 mg/kg [2]: 21%
Cn1cnc(S(=O)(=O)N2CCS(=O)(=O)CC2)c1 [Example 57, 4-(1-Methyl-4-imidazolesulfonyl)tetrahydro-4H-1,4-thiazine-1,1-dioxide]	–	–	inhibition in vivo at 10 mg/kg [2]: 19%
1-[3-(1-methyl-5-imidazolesulfonyl)-aminopropyl]-2-pyrrolidinone [Example 43]	2.29	–	Percentage change (TI of ischemic treated muscle vs TI of normal non-treated muscle) [1, 5]: +29.4%; Percentage change vs control (inhibition of laser-induced thrombosis) ([2]; 20 mg/kg p.o.): 15%
Cn1cnc(S(=O)(=O)NCCN2CCOCC2)c1 [Example 9, N-(2-morpholinoethyl)-1-methyl-4-imidazolesulfonamide]	2.47	10.3%	–
